Experimental data from patent US20230183742A1, “Viral Vector Production” (Oxford BioMedica (UK) Limited, priority 2020, published 2023).
Values joined by “and” are separate entries in the source; they are usually repeats but may differ in a detail not shown here. Equal entries are not always repeated. “Also recorded” adds a separate entry of the source. Where two headings read alike, the source gives them in different places.

What was measured:
Format in all cases: cell-based, human
HEK293T cells [1] = conditions: single agent, FIG. 2; for concentration giving optimum vector production: induction 24 h post transfection
HEK293T cells [2] = test system: HEK293T cells
HEK293T cells [3] = test system: HEK293T cells; remark: listed apart in the source
HEK1.65s cells [4] = conditions: for inducing effect on LV titre among HDAC inhibitors: HEK1.65s, 24-well plate, FIG. 7, sodium valproate at 3 mM, valeric acid at 10 mM
HEK1.65s cells [5] = experiment: Example 3 Experiment 2: sodium butyrate x prostratin DOE in suspension HEK1.65s, 24-well plate, GFP titration and JMP model; conditions: for optimum predicted concentration of combined induction agents: prediction profiler, FIG. 9C
HEK1.65s cells [6] = experiment: Example 3: cell viability measurements of induced HEK1.65s cells (Table 6); conditions: for Cell Viability (%): HEK1.65s; for Δ (cell viability vs No Induction Control): vs no induction control 78.8
HEK1.65s cells [7] = conditions: 11 μM prostratin + 8 mM sodium butyrate, 40 mL shake flask; FACS and integration QPCR, FIGS. 10A & B
HEK1.65s cells [8] = experiment: Example 4: 40 mL shake flask vector production, titre by duplex QPCR integration assay; conditions: VRC vs VRC+55 nM prostratin, FIG. 10B
[9] = test system: HEK293T.1-65s suspension cells
HEK1.65s cells [10] = test system: HEK1.65s cells
HEK1.65s cells [11] = test system: HEK1.65s cells; remark: listed apart in the source
[12] = test system: suspension (serum-free) HEK293T cells; experiment: Example 8: GFP reporter expression from constitutive promoters in suspension HEK293T with or without prostratin, flow cytometry; conditions: 11 μM prostratin with 10 mM sodium butyrate, two pDNA input levels, FIG. 18
HEK293T cells [13] = experiment: FIG. 13/14: standard or MSD-mutated lentiviral vector production in HEK293T with modified U1 snRNA, titration and RT-PCR of aberrant splice product; conditions: modified U1 snRNA co-expressed during production of standard and MSD-mutated LVs
[14] = 11 μM prostratin with 10 mM sodium butyrate
[15] = 256U1 snRNA expression combined with 11 μM prostratin at induction
[16] = single titre enhancing agent (256U1 expression or 11 μM prostratin), 10 mM sodium butyrate

CC(=O)O[C@@]12C[C@@H](C)[C@@]3(O)[C@@H](C=C(CO)C[C@]4(O)C(=O)C(C)=C[C@@H]34)[C@@H]1C2(C)C [prostratin, 12-Deoxyphorbol-13-acetate]
effect on vector titre (HEK293T cells [1]): highest vector induction | titre relative to the no-induction control (HEK293T cells [2]): approximately 4 fold | increase of MFI from GFP FACS of transduced cells (HEK293T cells [2]; 16 μM prostratin at induction, residual 0.4 μM after 40-fold vector dilution): 26% | MFI from GFP FACS of transduced cells (HEK293T cells [2]; 0.5 to 8 μM prostratin at induction): not observed to change | optimum concentration for vector induction (HEK293T cells [2]; single agent, FIG. 4): 0.016 mM | increase in vector titre (HEK293T cells [3]; 10 μM prostratin in combination with 10 mM sodium butyrate): 92% | effect on induction of increasing prostratin from 1 to 10 μM (HEK293T cells [3]; throughout all the tested HDAC inhibitors, FIG. 6): positive enhancement of induction | effect on titre of addition alongside HDACi (HEK1.65s cells [4]; prostratin 4-8 μM with HDACi, nearly all cases): increased titres | increase of LV titre above optimum sodium butyrate (8 mM) alone (HEK1.65s cells [5]; 11 μM prostratin with 8 mM sodium butyrate, DOE model optimum): 1.93 fold and ~2 fold | increase of GFP-HIV LV titres in combination with HDAC inhibitors (HEK1.65s cells [5]; Example 3 as summarised in Example 4, 24-well plate scale): ≥ 2 fold | effect on titre in combination with sodium butyrate (HEK1.65s cells [5]; FIG. 8): marked positive effect on titre | lowest concentrations causing an increase in titre (HEK1.65s cells [5]; in combination with sodium butyrate): 2 to 4 µM | optimum predicted concentration of combined induction agents (HEK1.65s cells [5]): 11 µM | increase in vector titre compared to the no induction control (HEK1.65s cells [5]; prostratin alone at 8-16 μM): ~13 fold and > 10 fold | inducing effect relative to optimum sodium butyrate (HEK1.65s cells [5]; prostratin alone at 8-16 μM): approximately half the inducing effect of optimum sodium butyrate concentrations | Cell Viability (%) (HEK1.65s cells [6]; 2 μM prostratin, condition 3, vector production period of 48 hours): 79.4% | Δ (cell viability vs No Induction Control) (HEK1.65s cells [6]; 2 μM prostratin, condition 3): +0.6 | Cell Viability (%) (HEK1.65s cells [6]; 16 μM prostratin, condition 9, vector production period of 48 hours): 82.2% | Δ (cell viability vs No Induction Control) (HEK1.65s cells [6]; 16 μM prostratin, condition 9): +3.4 | Cell Viability (%) (HEK1.65s cells [6]; 32 μM prostratin, condition 45, vector production period of 48 hours): 79.8% | Δ (cell viability vs No Induction Control) (HEK1.65s cells [6]; 32 μM prostratin, condition 45): +1 | effect on cell viability (HEK1.65s cells [6]; prostratin 2-32 μM, vector production period of 48 hours): did not present any further loss in cell viability; also recorded: little cytotoxic effect; also recorded: no decrease in cell viability | vector titre relative to induction with sodium butyrate alone (HEK1.65s cells [7]): 2.4- to 2.9 fold | effect of residual prostratin on titres from the integration assay (HEK1.65s cells [8]): identical titres | titres of MSD-mutated LV with Prostratin and 256U1 applied together ([9]; 11 μM Prostratin + 256U1 co-transfection, versus standard LV without inducers): higher that standard LV production titres; also recorded: increased higher than standard SIN-LV vectors | increase in titres of MSD-mutated LV vectors ([9]; 11 μM Prostratin added at the sodium butyrate step, HIV-MSD2KOm5-EFS-GFP or -EF1a-GFP, FIG. 15): 5-10 fold | effect on titres of MSD-mutated and standard SIN-LV [9, 14]: boosted titres | titre increase compared to standard production control, CAR #1 vector (HEK1.65s cells [10]; [15]): 125 fold | titre increase compared to standard production control, CAR #2-T2A-GFP vector (HEK1.65s cells [10]; [15]): 4.5 fold | titre increase compared to standard production control, CAR #2 vector (HEK1.65s cells [10]; [15]): 7.9 fold | titre increase compared to standard production control, CAR #1 vector (HEK1.65s cells [10]; [16]): 24 fold | titre increase compared to standard production control, CAR #2-T2A-GFP vector (HEK1.65s cells [10]; [16]): 2 fold | titre increase compared to standard production control, CAR #2 vector (HEK1.65s cells [10]; [16]): 2.6 fold | increase in EIAV-CMV-GFP titre compared to the control titre (HEK1.65s cells [11]; [14]): 2 fold | EIAV-CMV-GFP vector titre at harvest (HEK1.65s cells [11]; 11 μM prostratin with 10 mM sodium butyrate at induction): 9.1E+05 TU/mL | induction of GFP transgene expression from constitutive promoters [12]: induction of expression from the promoters; also recorded: clear induction

CC(=O)NCCCCCCNC(C)=O [HMBA]
titre relative to the no-induction control (HEK293T cells [2]): approximately 4 fold | effect on titre of combination with HDAC inhibitors (HEK293T cells [2]; compared with HDAC inhibitor alone): no or only marginal improvements in titres; also recorded: did not produce any positive effects on titre | optimum concentration for vector induction (HEK293T cells [2]; single agent, FIG. 4): 16 mM | effect on titre in combination with prostratin and sodium butyrate (HEK293T cells [3]; 8 mM HMBA, compared to conditions where HMBA was excluded): notable decrease | effect on titre in combination with alternate HDAC inhibitors (HEK293T cells [3]; with sodium valproate, valeric acid or SAHA, FIG. 6): negative effects on titre

O=C(CCCCCCC(=O)Nc1ccccc1)NO [SAHA, suberanilohydroxamic acid]
concentration giving optimum vector production (HEK293T cells [1]): 0.0025 mM | optimum concentration for vector induction (HEK293T cells [2]; single agent, FIG. 4): 0.001 mM

O=C(OC[C@H]1O[C@@H](OC(=O)c2cc(O)c(O)c(OC(=O)c3cc(O)c(O)c(O)c3)c2)[C@H](OC(=O)c2cc(O)c(O)c(OC(=O)c3cc(O)c(O)c(O)c3)c2)[C@@H](OC(=O)c2cc(O)c(O)c(OC(=O)c3cc(O)c(O)c(O)c3)c2)[C@@H]1OC(=O)c1cc(O)c(O)c(OC(=O)c2cc(O)c(O)c(O)c2)c1)c1cc(O)c(O)c(OC(=O)c2cc(O)c(O)c(O)c2)c1 [Tannic acid, tannic acid]
effect on vector titre (HEK293T cells [1]): no measurable vector production

CC(=O)N[C@@H](CS)C(=O)O [NAC, N-Acetyl Cysteine]
effect on vector titre (HEK293T cells [1]): no positive impact on titre

CCCCCCCCCCCCCC(=O)O[C@@H]1[C@@H](C)[C@@]2(O)[C@@H](C=C(CO)C[C@]3(O)C(=O)C(C)=C[C@@H]23)[C@@H]2C(C)(C)[C@]12OC(C)=O [PMA, Phorbol 12-myristate 13-acetate]
effect on vector titre (HEK293T cells [1]): highest vector induction | optimum concentration for vector induction (HEK293T cells [2]): 3.2e-05 mM | titre relative to the no-induction control (HEK293T cells [2]): approximately 4 fold

CCCC(CCC)C(=O)[O-].[Na+] [sodium valproate]
concentration giving optimum vector production (HEK293T cells [1]): 10 mM | optimum concentration for vector induction (HEK293T cells [2]; single agent, FIG. 4): 10 mM | inducing effect on LV titre among HDAC inhibitors (HEK1.65s cells [4]): some inducing effect

CCCCC(=O)O [valeric acid]
concentration giving optimum vector production (HEK293T cells [1]): 20 mM | optimum concentration for vector induction (HEK293T cells [2]; single agent, FIG. 4): 10 mM | inducing effect on LV titre among HDAC inhibitors (HEK1.65s cells [4]): some inducing effect

CCCC(=O)[O-].[Na+] [sodium butyrate]
concentration giving optimum vector production (HEK293T cells [1]): 5 mM | inducing effect on LV titre among HDAC inhibitors (HEK1.65s cells [4]): highest LV titres | optimum predicted concentration of combined induction agents (HEK1.65s cells [5]): 8000 µM | Cell Viability (%) (HEK1.65s cells [6]; 10 mM sodium butyrate, condition 35, vector production period of 48 hours): 74.8% | Δ (cell viability vs No Induction Control) (HEK1.65s cells [6]; 10 mM sodium butyrate, condition 35): −4 | loss in cell viability (HEK1.65s cells [6]; sodium butyrate treated cells, vector production period of 48 hours): 4%

CC(/C=C/C(=O)NO)=C\[C@@H](C)C(=O)c1ccc(N(C)C)cc1 [TSA]
effect on vector titre (HEK293T cells [1]): failed to improve vector titres

B1: 256U1: modified U1 snRNA targeting nt256-270 (SL1 loop) of the HIV-1 packaging signal; expression construct SEQ ID NO: 22 (nucleic acid)
DNA: TAAGGACCAGCTTCTTTGGGAGAGAACAGACGCAGGGGCGGGAGGGAAAAAGGGAGAGGCAGACGTCACTTCCCCTTGGCGGCTCTGGCAGCAGATTGGTCGGTTGAGTGGCAGAAAGGCAGACGGGGACTGGGCAAGGCACTGTCGGTGACATCACGGACAGGGCGACTTCTATGTAGATGAGGCAGCGCAGAGGCTGCTGCTTCGCCACTTGCTGCTTCACCACGAAGGAGTTCCCGTGCCCTGGGAGCGGGTTCAGGACCGCTGATCGGAAGTGAGAATCCCAGCTGTGTGTCAGGGCTGGAAAGGGCTCGGGAGTGCGCGGGGCAAGTGACCGTGTGTGTAAAGAGTGAGGCGTATGAGGCTGTGTCGGGGCAGAGGCCCAAGATCTCATTTGCCGTGCGCGCTTGCAGGGGAGATACCATGATCACGAAGGTGGTTTTCCCAGGGCGAGGCTTATCCATTGCACTCCGGATGTGCTGACCCCTGCGATTTCCCCAAATGTGGGAAACTCGACTGCATAATTTGTGGTAGTGGGGGACTGCGTTCGCGCTTTCCCCTGGTTTCAAAAGTAGACTGTACGCTAAGGGTCATATCTTTTTTTGTTTTGGTTTGTGTCTTGGTTGGCGTCTTAAATGTTAA
modifications: DNA-based expression constructs for the modified U1 snRNAs
titre increase compared to standard production control, CAR #1 vector (HEK1.65s cells [10]; [16]): 46 fold | titre increase compared to standard production control, CAR #2-T2A-GFP vector (HEK1.65s cells [10]; [16]): 2.7 fold | titre increase compared to standard production control, CAR #2 vector (HEK1.65s cells [10]; [16]): 2.5 fold | effect on lentiviral vector titres (HEK293T cells [13]): capable of increasing lentiviral vector titres
